Test results from patent publication US12247018B2, “Aryl-n-aryl derivatives for treating a RNA virus infection” (ABIVAX, priority 2018, dated 2025).

System: RSV A2
Experiment: RSV inhibition (cytopathic effect) in HEp-2 cells using Viral ToxGlo assay
Type: cell-based
Conditions: human respiratory syncytial virus; RSV A2, HEp-2 cells, MOI 0.5, 72 h p.i.
Procedure: Protocol for Screening Antiviral Compounds for RSV Inhibition and Cytotoxicity Using Viral ToxGlo Assay
HEp-2 cells were maintained in Eagle's minimum essential medium (EMEM) with Earle's BSS adjusted to contain 2 mM L-glutamine, 10% fetal bovine serum, 100 U/ml penicillin and 100 μg/ml streptomycin. For the purposes of the screening assay they were grown to 90% confluency, trypsinized and recovered. The trypsin was neutralised with cell culture media and cells were centrifuged at 150×g for 5 minutes before discarding the supernatant and resuspending cell pellet in assay media (EMEM with Earle's BSS adjusted to contain 2 mM L-glutamine, 2% fetal bovine serum and 100 U/ml penicillin and 100 μg/ml streptomycin). The cells were seeded into white clear-bottomed cell culture plates at a density of 1.5×10^4 cells/well in 50 μl and 4×10^3 cells/well in 25 μl for 96 well plates and 384 well plates respectively. For the media/background control column assay media only was added. Cell plates were placed in a humid chamber and incubated overnight at 37° C./5% CO2. After overnight incubation cells were checked for confluency and healthy appearance.
Test articles were made up at 10× test concentration in a maximum DMSO concentration of 10% (final assay concentration maximal 1% DMSO) and added to the cell plates in volumes of 10 μl for 96 well plates and 5 μl for 384 well plates. For cell control and virus control wells the test article solvent only was added. Virus or assay media for cytotoxicity test wells and media/cell control wells was added immediately after test articles at an MOI of 0.5, 40 or 20 μl for 96 and 384 well plates respectively. Virus suspension was prepared by thawing RSV A2 frozen stocks and diluting to the required concentration of plaque forming units in assay media on ice.
Cell plates were further incubated inside a humid chamber for 72 h p.i at 37° C./5% CO2. After the incubation period cells were observed under the microscope to check for characteristic cytopathic effect in virus control wells and healthy cells in the cell control wells. After plates were adjusted to room temperature 20/40 μl Viral ToxGlo (Promega) was added to each well of the 384/96 well cell plates. Plates were incubated at room temperature, protected from light on a plate rocker for 20 minutes before measuring the luminescence on a spectrophotometer (Biotek Synergy HTX).

Row | Compound | EC50 [nM]
1 | O=C(N=C1NCCCN1)c1ccc(Nc2cccc(C(=O)NCC(F)(F)F)c2)c(C2CC2)c1 [compound 133, 3-cyclopropyl-N-(1,3-diazinan-2-ylidene)-4-({3-[(2,2,2-trifluoroethyl)carbamoyl]phenyl}amino)benzamide] | 261
2 | CC(C)NC(=O)c1cccc(Nc2ccc(C(=O)N=C3NCCCN3)cc2C2CC2)c1 [compound 102, 3-cyclopropyl-N-(1,3-diazinan-2-ylidene)-4-({3-[(propan-2-yl)carbamoyl]phenyl}amino)benzamide] | 41
3 | CC(NC(=O)c1cccc(Nc2ccc(C(=O)N=C3NCCCN3)cc2C2CC2)c1)C(F)(F)F (stereo not shown) [compound 109, 3-cyclopropyl-N-(1,3-diazinan-2-ylidene)-4-({3-[(1,1,1-trifluoropropan-2-yl)carbamoyl]phenyl}amino)benzamide] | 79
4 | O=C(N=C1NCCCN1)c1ccc(Nc2cccc(OCC(F)(F)F)c2)c(C2CC2)c1 [compound 124, 3-cyclopropyl-N-(1,3-diazinan-2-ylidene)-4-{[3-(2,2,2-trifluoroethoxy)phenyl]amino}benzamide] | 150
5 | O=C(N=C1NCCCN1)c1ccc(Nc2cccc(OCC3CCCCC3)c2)c(C2CC2)c1 [compound 127, 4-{[3-(cyclohexylmethoxy)phenyl]amino}-3-cyclopropyl-N-(1,3-diazinan-2-ylidene)benzamide] | 172
6 | O=C1CCN/C(=N\C(=O)c2ccc(Nc3cccc(OCC4CCOCC4)c3)c(C3CC3)c2)N1 [compound 146, 3-cyclopropyl-4-({3-[(oxan-4-yl)methoxy]phenyl}amino)-N-[(2E)-4-oxo-1,3-diazinan-2-ylidene]benzamide] | 439
7 | CC(C)NC(=O)c1cccc(Nc2ccc(C(=O)/N=C3\NCCC(=O)N3)cc2C(C)(C)C)c1 [compound 98, 3-tert-butyl-N-[(2E)-4-oxo-1,3-diazinan-2-ylidene]-4-({3-[(propan-2-yl)carbamoyl]phenyl}amino)benzamide] | 33
8 | CC1CN1C(=O)c1cccc(Nc2ccc(C(=O)N=C3NCCCN3)cc2C2CC2)c1 (stereo not shown) [compound 162, 3-cyclopropyl-N-(1,3-diazinan-2-ylidene)-4-{[3-(2-methylaziridine-1-carbonyl)phenyl]amino}benzamide] | 1370
9 | Cc1c(NC(=O)CCC(C)C)cccc1Nc1ccc(C(=O)N=C2NCCCN2)cc1C1CC1 [compound 128, 3-cyclopropyl-N-(1,3-diazinan-2-ylidene)-4-{[2-methyl-3-(4-methylpentanamido)phenyl]amino}benzamide] | 209
10 | O=C(N=C1NCCCN1)c1ccc(Nc2ccccc2S(=O)(=O)CCCC2CCCCC2)c(C2CC2)c1 [compound 106, 4-{[2-(3-cyclohexylpropanesulfonyl)phenyl]amino}-3-cyclopropyl-N-(1,3-diazinan-2-ylidene)benzamide] | 67
11 | CCC(C)NC(=O)c1cccc(Nc2ccc(C(=O)N=C3NCCCN3)cc2C2CC2)c1 (stereo not shown) [compound 101, 4-({3-[(butan-2-yl)carbamoyl]phenyl}amino)-3-cyclopropyl-N-(1,3-diazinan-2-ylidene)benzamide] | 40
12 | CC(C)OCCOc1cccc(Nc2ccc(C(=O)N=C3NCCCN3)cc2C2CC2)c1 [compound 139, 3-cyclopropyl-N-(1,3-diazinan-2-ylidene)-4-({3-[2-(propan-2-yloxy)ethoxy]phenyl}amino)benzamide] | 340
13 | CC(C)NC(=O)c1ccccc1Nc1ccc(C(=O)/N=C2\NCCC(=O)N2)cc1C(C)(C)C [compound 100, 3-tert-butyl-N-[(2E)-4-oxo-1,3-diazinan-2-ylidene]-4-({2-[(propan-2-yl)carbamoyl]phenyl}amino)benzamide] | 37
14 | O=C(N=C1NCCCN1)c1ccc(Nc2cccc(C(=O)NC3CCCCC3)c2)c(C2CC2)c1 [compound 117, 4-{[3-(cyclohexylcarbamoyl)phenyl]amino}-3-cyclopropyl-N-(1,3-diazinan-2-ylidene)benzamide] | 125
15 | O=C(CCC1CCCCC1)Nc1cc(Nc2ccc(C(=O)N=C3NCCCN3)cc2C(F)(F)F)ccc1F [compound 148, 4-{[3-(3-cyclohexylpropanamido)-4-fluorophenyl]amino}-N-(1,3-diazinan-2-ylidene)-3-(trifluoromethyl)benzamide] | 463
16 | CC(C)CCNC(=O)c1cccc(Nc2ccc(C(=O)N=C3NCCCN3)cc2C(F)(F)F)c1 [compound 104, N-(1,3-diazinan-2-ylidene)-4-({3-[(3-methylbutyl)carbamoyl]phenyl}amino)-3-(trifluoromethyl)benzamide] | 50

Row | Compound | EC50 [nM]
17 | O=C(N=C1NCCCN1)c1ccc(Nc2cccc(C(O)CCCC3CCCCC3)c2)c(C2CC2)c1 (stereo not shown) [compound 103, 4-{[3-(4-cyclohexyl-1-hydroxybutyl)phenyl]amino}-3-cyclopropyl-N-(1,3-diazinan-2-ylidene)benzamide] | 44
18 | O=C(N=C1NCCCN1)c1ccc(Nc2cccc(C(=O)NC3CCOC3)c2)c(C2CC2)c1 (stereo not shown) [compound 155, 3-cyclopropyl-N-(1,3-diazinan-2-ylidene)-4-({3-[(oxolan-3-yl)carbamoyl]phenyl}amino)benzamide] | 949
19 | O=C(N=C1NCCCN1)c1ccc(Nc2cccc(C(=O)NC3COC3)c2)c(C2CC2)c1 [compound 166, 3-cyclopropyl-N-(1,3-diazinan-2-ylidene)-4-({3-[(oxetan-3-yl)carbamoyl]phenyl}amino)benzamide] | 2740
20 | CC(C)CCCCNC(=O)c1cccc(Nc2ccc(C(=O)N=C3NCCCN3)cc2C2CC2)c1 [compound 107, 3-cyclopropyl-N-(1,3-diazinan-2-ylidene)-4-({3-[(5-methylhexyl)carbamoyl]phenyl}amino)benzamide] | 68
21 | O=C1CCN/C(=N\C(=O)c2ccc(Nc3cccc(OCC4CCCCO4)c3)c(C3CC3)c2)N1 (stereo not shown) [compound 151, 3-cyclopropyl-4-({3-[(oxan-2-yl)methoxy]phenyl}amino)-N-[(2E)-4-oxo-1,3-diazinan-2-ylidene]benzamide] | 525
22 | O=C1CCN/C(=N\C(=O)c2ccc(Nc3cccc(C(=O)N4CCOCC4)c3Cl)c(C3CC3)c2)N1 [compound 95, 4-{[2-chloro-3-(morpholine-4-carbonyl)phenyl]amino}-3-cyclopropyl-N-[(2E)-4-oxo-1,3-diazinan-2-ylidene]benzamide] | 19
23 | O=C(N=C1NCCCN1)c1ccc(Nc2cccc(OC3COC3)c2)c(C2CC2)c1 [compound 144, 3-cyclopropyl-N-(1,3-diazinan-2-ylidene)-4-{[3-(oxetan-3-yloxy)phenyl]amino}benzamide] | 413
24 | O=C(N=C1NCCCN1)c1ccc(Nc2cccc(C(=O)NCCC3CCOCC3)c2)c(C2CC2)c1 [compound 126, 3-cyclopropyl-N-(1,3-diazinan-2-ylidene)-4-[(3-{[2-(oxan-4-yl)ethyl]carbamoyl}phenyl)amino]benzamide] | 165
25 | CC(C)CCNC(=O)c1ccccc1Nc1ccc(C(=O)N=C2NCCCN2)cc1C1CC1 [compound 147, 3-cyclopropyl-N-(1,3-diazinan-2-ylidene)-4-({2-[(3-methylbutyl)carbamoyl]phenyl}amino)benzamide] | 460
26 | O=C1CCN/C(=N\C(=O)c2ccc(Nc3cccc(OCC4CCCOC4)c3)c(C3CC3)c2)N1 (stereo not shown) [compound 134, 3-cyclopropyl-4-({3-[(oxan-3-yl)methoxy]phenyl}amino)-N-[(2E)-4-oxo-1,3-diazinan-2-ylidene]benzamide] | 265
27 | O=C(N=C1NCCCN1)c1ccc(Nc2cccc(S(=O)(=O)CCCC3CCCCC3)c2)c(C2CC2)c1 [compound 143, 4-{[3-(3-cyclohexylpropanesulfonyl)phenyl]amino}-3-cyclopropyl-N-(1,3-diazinan-2-ylidene)benzamide] | 398
28 | CN(C)C(=O)c1cccc(Nc2ccc(C(=O)N=C3NCCCN3)cc2C2CC2)c1 [compound 163, 3-cyclopropyl-N-(1,3-diazinan-2-ylidene)-4-{[3-(dimethylcarbamoyl)phenyl]amino}benzamide] | 1470
29 | O=C1CCN/C(=N\C(=O)c2ccc(Nc3cccc(OCCC4COCCO4)c3)c(C3CC3)c2)N1 (stereo not shown) [compound 150, 3-cyclopropyl-4-({3-[2-(1,4-dioxan-2-yl)ethoxy]phenyl}amino)-N-[(2E)-4-oxo-1,3-diazinan-2-ylidene]benzamide] | 512
30 | Cc1c(Nc2ccc(C(=O)N=C3NCCCN3)cc2C2CC2)cccc1C(=O)NCCC(C)C [compound 96, 3-cyclopropyl-N-(1,3-diazinan-2-ylidene)-4-({2-methyl-3-[(3-methylbutyl)carbamoyl]phenyl}amino)benzamide] | 20
31 | CC(C)CCCNC(=O)c1cccc(Nc2ccc(C(=O)N=C3NCCCN3)cc2C2CC2)c1 [compound 105, 3-cyclopropyl-N-(1,3-diazinan-2-ylidene)-4-({3-[(4-methylpentyl)carbamoyl]phenyl}amino)benzamide] | 62
